{
  "source": "patent US6491894B1",
  "about": "“NGR receptor and methods of identifying tumor homing molecules that home to angiogenic vasculature using same” (The Burnham Institute, priority 1998, dated 2002)",
  "key": {"[1]": {"molecular_target": "CD13/aminopeptidase N (Homo sapiens, UniProt P15144)", "sequence (P15144 whole entry)": "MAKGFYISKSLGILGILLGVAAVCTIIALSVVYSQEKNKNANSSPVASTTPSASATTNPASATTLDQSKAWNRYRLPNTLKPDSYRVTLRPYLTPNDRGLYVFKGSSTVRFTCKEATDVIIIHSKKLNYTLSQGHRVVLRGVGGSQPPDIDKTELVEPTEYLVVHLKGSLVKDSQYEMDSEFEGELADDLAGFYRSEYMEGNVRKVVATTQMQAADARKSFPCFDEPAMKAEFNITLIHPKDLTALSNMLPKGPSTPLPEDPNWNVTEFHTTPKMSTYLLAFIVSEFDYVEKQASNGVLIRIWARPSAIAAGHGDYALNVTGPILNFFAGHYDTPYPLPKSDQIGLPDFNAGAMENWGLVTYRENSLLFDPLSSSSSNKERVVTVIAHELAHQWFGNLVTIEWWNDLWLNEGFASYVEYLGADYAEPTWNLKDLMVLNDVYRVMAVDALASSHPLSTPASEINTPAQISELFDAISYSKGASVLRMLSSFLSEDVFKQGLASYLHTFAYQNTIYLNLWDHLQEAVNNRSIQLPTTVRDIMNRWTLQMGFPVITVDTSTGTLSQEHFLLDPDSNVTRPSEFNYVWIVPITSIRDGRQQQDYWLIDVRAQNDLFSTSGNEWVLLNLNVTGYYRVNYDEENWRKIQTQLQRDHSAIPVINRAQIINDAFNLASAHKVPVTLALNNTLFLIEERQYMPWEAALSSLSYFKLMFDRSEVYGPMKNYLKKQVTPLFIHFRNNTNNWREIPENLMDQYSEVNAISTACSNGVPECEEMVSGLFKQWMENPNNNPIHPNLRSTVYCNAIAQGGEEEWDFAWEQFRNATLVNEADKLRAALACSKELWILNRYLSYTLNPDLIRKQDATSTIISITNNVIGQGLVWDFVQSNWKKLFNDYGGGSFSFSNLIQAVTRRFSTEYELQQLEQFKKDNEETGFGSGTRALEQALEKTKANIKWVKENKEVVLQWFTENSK", "conditions": "cited from earlier work"}, "[2]": {"conditions": "high doses; cited from earlier work"}, "[3]": {"molecular_target": "T1, CD13 (Gallus gallus, UniProt O57579)", "T1 construct": "CD13 is expressed in CAM angiogenic vasculature; from tissue; host or cells: chorioallantoic membrane of 10-day chicken embryos", "T1 sequence (O57579 1-972)": "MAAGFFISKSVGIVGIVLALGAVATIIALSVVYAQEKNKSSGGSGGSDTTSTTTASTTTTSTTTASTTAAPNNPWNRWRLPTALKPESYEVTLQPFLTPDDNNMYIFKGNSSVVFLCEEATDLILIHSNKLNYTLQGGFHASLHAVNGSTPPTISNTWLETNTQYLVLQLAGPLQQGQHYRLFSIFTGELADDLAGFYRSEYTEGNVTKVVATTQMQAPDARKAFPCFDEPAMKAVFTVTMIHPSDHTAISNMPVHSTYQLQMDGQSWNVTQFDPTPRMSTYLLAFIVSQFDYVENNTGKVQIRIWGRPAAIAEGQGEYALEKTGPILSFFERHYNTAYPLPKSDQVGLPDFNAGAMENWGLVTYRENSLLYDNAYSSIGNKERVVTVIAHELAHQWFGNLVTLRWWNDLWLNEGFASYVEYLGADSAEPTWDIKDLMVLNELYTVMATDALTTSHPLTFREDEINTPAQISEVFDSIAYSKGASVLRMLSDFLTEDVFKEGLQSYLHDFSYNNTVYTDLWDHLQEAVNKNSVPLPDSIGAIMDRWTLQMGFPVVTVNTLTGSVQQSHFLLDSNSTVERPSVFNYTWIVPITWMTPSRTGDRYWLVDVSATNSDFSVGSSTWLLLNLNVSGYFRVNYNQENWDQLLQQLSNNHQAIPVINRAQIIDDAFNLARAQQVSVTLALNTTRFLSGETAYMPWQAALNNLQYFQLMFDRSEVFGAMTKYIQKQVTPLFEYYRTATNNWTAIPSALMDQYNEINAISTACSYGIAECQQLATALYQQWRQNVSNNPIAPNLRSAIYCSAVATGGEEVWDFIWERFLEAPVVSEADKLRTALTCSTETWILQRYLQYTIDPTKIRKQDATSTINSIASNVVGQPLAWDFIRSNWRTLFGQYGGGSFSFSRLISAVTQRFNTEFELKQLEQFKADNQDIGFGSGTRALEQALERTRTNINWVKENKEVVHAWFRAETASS", "assay": "bFGF-induced angiogenesis in chicken chorioallantoic membrane (CAM)", "assay_type": "in vivo", "conditions": "topical, 3 days", "text": "Various treatments were applied topically, and, after 3 days, the filters and surrounding CAMs were resected and fixed in formalin.\nEach bar represents the mean number of vessels and standard errors from 8 CAMs on each group."}, "[4]": {"molecular_target": "T2, CD13 (Homo sapiens, UniProt P15144)", "T2 sequence (P15144 whole entry)": "as the sequence (P15144 whole entry) above", "assay": "Phage binding assays with CD13/APN-transfected cells", "assay_type": "cell-based", "parameters": "expressed in transfected cells; host or cells: Molt-4 human T cell leukemia", "conditions": "250 and 500 μg/ml", "experimental": "The CNGRC phage binds specifically to cells transfected with CD13. […] Briefly, mock transfected Molt-4 cells (“Molt-4/mock”) and cells transfected with CD13 (“Molt-4/CD13”) were incubated with CNGRC (SEQ ID NO:8) phage or with control Fd phage lacking an insert (2×10^9 transducing units (TU) per sample). Synthetic peptides, CNGRC (SEQ ID NO:8) or the negative control CARAC (SEQ ID NO:221), were pre-incubated with the cells at 250 and 500 μg/ml. After extensive washing, bound phage were quantitated by infection of bacteria as described above."}, "[5]": {"molecular_target": "T2, CD13", "assay": "Phage binding to immobilized CD13", "parameters": "Kaposi's sarcoma tumor cell octylglucoside extracts were used as a source of CD13/APN; endogenous in cells; host or cells: Kaposi's sarcoma tumor cells (octylglucoside extract)", "conditions": "200 μg/well", "experimental": "In FIG. 4B, NGR-containing phage were assayed for the ability to bind CD13. […] Various phage were added to the wells at 2×10^9 transducing units (TU) per well. […] The data were expressed as means and standard errors from triplicate wells.\nThe data shown were expressed as means and standard errors from triplicate wells."}, "[6]": {"molecular_target": "T3, CD13/APN (Homo sapiens, UniProt P15144)", "T3 construct": "Experiments were performed using HL-60 cell extracts because they are known to express CD13/APN; endogenous in cells; host or cells: HL-60 cells (extract)", "T3 sequence (P15144 whole entry)": "as the sequence (P15144 whole entry) above", "assay": "Affinity chromatography of cell extracts on immobilized peptide", "assay_type": "binding", "conditions": "Molt-4/CD13, MDA-MB-435/CD13 or HL-60 cell extracts", "experimental": "To further characterize the interaction of CD13/APN with the NGR peptide, affinity chromatography on the CNGRC peptide was performed. The column was prepared by coupling the CNGRC peptide to SEPHAROSE (Pharmacia; Piscataway N.J.). Elution was effected with soluble CNGRC peptide. […] Extracts of Molt-4 and MDA-MB-435 cells transfected with CD13/APN were also characterized by using affinity chromatography, with extracts of the mock transfected counterparts used as negative controls.\nThe fractions were also analyzed for CD13 enzymatic activity using AlapNA as the substrate."}, "[7]": {"system": "MDA-MB-435 derived tumors", "assay": "In vivo targeting of phage to breast carcinoma xenografts (phage recovery)", "parameters": "species or system mouse", "experimental": "When the tumors attained a diameter of about 1 cm, phage expressing a specific RGD-containing peptide were administered to the tumor bearing mouse. Similar results to those discussed below also were obtained with nude mice bearing tumors formed by implantation of human melanoma C8161 cells or by implantation of mouse B16 melanoma cells.\n1×10^9 phage expressing the RGD-containing peptide, RGD-4C ([…]; SEQ ID NO:1; see, Koivunen et al., supra, 1995) or control (insertless) phage were injected intravenously (iv) into the mice and allowed to circulate for 4 min. The mice then were snap frozen or perfused through the heart while under anesthesia, and various organs, including tumor, brain and kidney, were removed and the phage present in the organs was quantitated (see U.S. Pat. No. 5,622,699; Pasqualini and Ruoslahti, supra, 1996).\nPhage displaying tumor homing peptides were recovered from breast carcinoma xenografts. […] The mean number of phage recovered from the tumor or control tissue (brain) and the standard error of the mean (SEM) from triplicate platings are shown in FIG. 1.\nAn insertless phage with a different selective marker (ampicillin instead of tetracycline) was co-injected with the NGR phage at the same input to assess specificity within the same tumor-bearing animal. The ratios were calculated using the number of co-injected control ampicillin-resistant phage recovered from the same tissues. The phage were quantitated from triplicate platings on tetracycline (the homing phage) or ampicillin (control phage) selective plates. Various additional control phage were injected separately into tumor-bearing mice. These controls included: fd-tet phage without insert; unselected phage library mixtures; phage selected and shown to home to other normal vascular beds; and phage displaying peptides that were unrelated to NGR. The RGD-4C ([…]; SEQ ID NO:1) phage served as a positive control."}, "[8]": {"system": "MDA-MB-435 breast carcinoma", "assay": "Tumor therapy of mice bearing MDA-MB-435 breast carcinoma", "assay_type": "in vivo, mouse", "experimental": "Female 2-month old Balb c nu/nu mice (Harlan Sprague Dawley; San Diego Calif.) were used for these studies and were cared for according to the Burnham Institute animal facility guidelines. […] Tumors were allowed to grow to a size of about 1 cm^3 (about 5% of the mouse's body weight) before starting the treatment experiments, except for the toxicity experiments as discussed below.\nWeekly doxorubicin/peptide conjugate or control treatments (5 μg/mouse/week of doxorubicin-equivalent) were administered intravenously. In some experiments, as indicated, a dose of 30 μg/mouse was administered every 3 weeks. […] As an additional control, in some experiments the tumor homing peptide was mixed with doxorubicin, without linking, and the mixture was administered to tumor bearing mice.\nMice were anesthetized with a tribromoethanol-based anesthetic mixture (AVERTIN; Papaioannou and Fox, Lab. Anim. 43:189-192 (1993)) before each treatment. Anesthetization facilitated the tail vein injections (final volume, 200 μl) and allowed precise serial three dimensional tumor size measurements. Tumor volume calculations were based on the equation for the volume of an ovaloid: V=4/3(nabc), where a, b, and c are ½ of the measured diameters in each of the three dimensions.\nBriefly, mice with size-matched tumors (˜1000 mm^3) were randomized into four treatment groups (six animals per group): vehicle only, free doxorubicin, doxorubicin-control peptide, and doxorubicin-CNGRC (SEQ ID NO:8). Mice were treated at 5 μg/mouse/week of doxorubicin-equivalent, and the difference in tumor volumes between day 1 and day 28 determined (FIG. 11A)."}, "[9]": {"assay": "Acute toxicity in mice bearing extremely large tumors", "conditions": "mouse, in vivo"}, "[10]": {"system": "Hodgkin's lymphoma", "assay": "Treatment of mice bearing Hodgkin's lymphoma", "assay_type": "in vivo", "conditions": "two doses, 40 μg/mouse doxorubicin equivalent, tumors ~5000 mm^3", "experimental": "Mice bearing large (˜5000 mm^3) Hodgkin's lymphoma (eight animals per group) were randomized to receive two doses of free doxorubicin plus unconjugated CNGRC peptide or doxorubicin-CNGRC (SEQ ID NO:8) conjugate at 40 μg/mouse of doxorubicin equivalent."}, "[11]": {"conditions": "5 μg/mouse/week doxorubicin-equivalent iv"}},
  "note": "Where no end group is shown, it is not given here.",
  "data": [
    {"compound": "CC(C)C[C@H](NC(=O)[C@@H](O)[C@H](N)Cc1ccccc1)C(=O)O", "note": "[bestatin]", "values": [
      {"measurement": "block of cell-surface CD13/aminopeptidase N enzymatic activity", "setting": "[1]", "result": "potently blocked"},
      {"measurement": "effect on metastasis", "setting": "[2]", "result": "marked suppression of experimental and spontaneous metastasis"},
      {"measurement": "effect on bFGF-induced angiogenesis in CAM", "setting": "[3]", "result": "suppress bFGF-induced angiogenesis"}
    ]},
    {"compound": "CNGRC", "values": [
      {"measurement": "inhibition of CNGRC phage binding to CD13 transfected cells by synthetic peptide", "setting": "[4]", "result": "blocked"},
      {"measurement": "inhibition of NGR-phage binding to CD13 by peptide", "setting": "[5]", "result": "Inhibition"},
      {"measurement": "elution of CD13/APN from the CNGRC column by soluble peptide", "setting": "[6]", "result": "yielded fractions containing functional CD13/APN"},
      {"measurement": "inhibition of accumulation of the two other NGR-displaying phage by co-injected soluble peptide", "setting": "[7]; breast carcinoma xenografts", "result": "also inhibited the accumulation"},
      {"measurement": "inhibition of tumor homing of CNGRCVSGCAGRC (NGR) phage by co-injected soluble peptide", "setting": "[7]; breast carcinoma xenografts", "result": "inhibited the accumulation"},
      {"measurement": "inhibition of tumor homing of RGD-4C phage by co-injected soluble peptide", "setting": "[7]; increasing amounts of peptide", "result": "not inhibited"}
    ]},
    {"compound": "doxorubicin/CNGRC (not fully specified (bridges); cysteine pairing not given here; also: doxorubicin conjugate)", "values": [
      {"measurement": "survival", "setting": "[8]; [11]", "result": "A marked effect on survival"},
      {"measurement": "tumor size versus doxorubicin control", "setting": "[8]; [11]", "result": "significantly smaller"},
      {"measurement": "survival versus doxorubicin alone", "setting": "[8]; 5 μg/mouse/week or single dose 200 μg/mouse doxorubicin equivalent", "result": "lived longer"},
      {"measurement": "cures", "setting": "[8]; mouse, in vivo", "result": "Cures were also observed"},
      {"measurement": "effect on tumor growth", "setting": "[8]; relative to vehicle alone", "result": "almost completely suppressed tumor growth"},
      {"measurement": "toxicity compared with free doxorubicin", "setting": "[9]", "result": "less toxic than free doxorubicin"},
      {"measurement": "survival versus unconjugated peptide doxorubicin mixture", "setting": "[10]", "result": "lived longer"}
    ]}
  ]
}
